According to patent US10173991B2, “Sulfone amide linked benzothiazole inhibitors of endothelial lipase” (BRISTOL-MYERS SQUIBB COMPANY, priority 2014, dated 2019):

Target: Endothelial lipase (EL) (Homo sapiens (Human), UniProt Q9Y5X9)
Experiment: Endothelial lipase (EL) enzymatic assay with fluorescent substrate A10070 in DMPG vesicles
Format: biochemical
Procedure, shortened: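 Vesicles prepared: A10070 dried with DMPG, resuspended in HEPES pH 8.0/NaCl/EDTA, sonicated on ice. Enzyme incubated with compound 30 min at 37° C. Reaction started with 1:10 diluted vesicles. Fluorescence (490/530 nm) followed 60 min; slope from 300–900 secs gives rate.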

Sequence of Endothelial lipase (EL) (Q9Y5X9 21-500): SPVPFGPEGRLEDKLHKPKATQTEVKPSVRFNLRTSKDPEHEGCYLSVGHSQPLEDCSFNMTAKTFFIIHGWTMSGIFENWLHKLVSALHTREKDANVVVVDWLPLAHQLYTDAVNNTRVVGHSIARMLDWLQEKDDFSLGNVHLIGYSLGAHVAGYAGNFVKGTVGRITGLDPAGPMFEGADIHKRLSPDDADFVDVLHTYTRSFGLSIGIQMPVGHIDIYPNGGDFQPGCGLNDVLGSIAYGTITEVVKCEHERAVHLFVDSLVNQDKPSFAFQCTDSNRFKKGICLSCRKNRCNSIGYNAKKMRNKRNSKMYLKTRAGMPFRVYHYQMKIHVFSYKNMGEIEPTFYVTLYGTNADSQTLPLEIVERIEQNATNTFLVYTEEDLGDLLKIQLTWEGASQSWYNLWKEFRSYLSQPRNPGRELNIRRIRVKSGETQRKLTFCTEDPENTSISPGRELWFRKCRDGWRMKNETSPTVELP

| SMILES | IC50 |
| --- | --- |
| COCCNC(=O)c1ccc(-c2ccc3nc(C(C(=O)NCC(=O)NC4CC4)S(=O)(=O)Cc4ccc(F)cc4)sc3c2)cc1 (stereo not shown) [Example 226, 4-[2-({[(cyclopropyl-carbamoyl)methyl]carbamoyl}(4-fluorophenyl)methanesulfonyl-methyl)-1,3-benzothiazol-6-yl]-N-(2-methoxyethyl) benzamide] | 91 nM |
| CC(C)(C)OC(=O)N1CC(S(=O)(=O)C(C(=O)NCC(=O)NC2CC2)c2nc3ccc(-c4ccc(F)nc4)cc3s2)C1 (stereo not shown) [Example 227, tert-butyl 3-({[(cyclopropyl-carbamoyl)methyl]carbamoyl}[6-(6-fluoropyridin-3-yl)-1,3-benzothiazol-2-yl]methanesulfonyl) azetidine-1-carboxylate] | 103 nM |
| O=C(CNC(=O)C(c1nc2ccc(-c3cccnc3F)cc2s1)S(=O)(=O)Cc1ccc(F)cc1)NC1CC1 (stereo not shown) [Example 229, N-[(cyclopropyl-carbamoyl)methyl]-2-[(4-fluorophenyl)methanesulfonyl]-2-[6-(2-fluoropyridin-3-yl)-1,3-benzothiazol-2-yl]acetamide] | 150 nM |
| CC(C)n1cc(-c2ccc3nc(C(C(=O)NCC(=O)NC4CC4)S(=O)(=O)Cc4cccc(C#N)c4)sc3c2)ccc1=O (stereo not shown) [Example 230, 2-[(3-cyanophenyl)methanesulfonyl]-N-[(cyclopropyl-carbamoyl)methyl]-2-{6-[6-oxo-1-(propan-2-yl)-1,6-dihydropyridin-3-yl]-1,3-benzothiazol-2-yl}acetamide] | 46 nM |
| Cc1ncc(-c2cc3sc(C(C(=O)NCC(=O)NC4CC4)S(=O)(=O)C(C)C)nc3cc2F)cn1 (stereo not shown) [Example 231, N-[(cyclopropyl-carbamoyl)methyl]-2-[5-fluoro-6-(2-methylpyrimidin-5-yl)-1,3-benzothiazol-2-yl]-2-(propane-2-sulfonyl) acetamide] | 11 nM |
| CC(C)S(=O)(=O)C(C(=O)NCC(=O)NC1CC1)c1nc2cc(F)c(-c3cnc(=O)[nH]c3)cc2s1 (stereo not shown) [Example 232, N-[(cyclopropyl-carbamoyl)methyl]-2-[5-fluoro-6-(2-oxo-1,2-dihydropyrimidin-5-yl)-1,3-benzothiazol-2-yl]-2-(propane-2-sulfonyl) acetamide] | 122 nM |
| CC(C)S(=O)(=O)C(C(=O)NCC(=O)NC1CC1)c1nc2cc(F)c(-c3cn(C)c(=O)c4ccccc34)cc2s1 (stereo not shown) [Example 233, N-[(cyclopropyl-carbamoyl)methyl]-2-[5-fluoro-6-(2-methyl-1-oxo-1,2-dihydro-isoquinolin-4-yl)-1,3-benzothiazol-2-yl]-2-(propane-2-sulfonyl) acetamide] | 26 nM |
| CC(C)S(=O)(=O)C(C(=O)NCC(=O)NC1CC1)c1nc2cc(F)c(-c3ccc4[nH]c(=O)ccc4c3)cc2s1 (stereo not shown) [Example 234, N-[(cyclopropyl-carbamoyl)methyl]-2-[5-fluoro-6-(2-oxo-1,2-dihydroquinolin-6-yl)-1,3-benzothiazol-2-yl]-2-(propane-2-sulfonyl) acetamide] | 6 nM |
| CC(C)Oc1ccc(-c2cc3sc(C(C(=O)NCC(=O)NC4CC4)S(=O)(=O)C(C)C)nc3cc2F)cn1 (stereo not shown) [Example 235, N-[(cyclopropyl-carbamoyl)methyl]-2-{5-fluoro-6-[6-(propan-2-yloxy)pyridin-3-yl]-1,3-benzothiazol-2-yl}-2-(propane-2-sulfonyl) acetamide] | 6 nM |
| CC(C)S(=O)(=O)C(C(=O)NCC(=O)NC1CC1)c1nc2cc(F)c(-c3ccc4c(c3)CNC4=O)cc2s1 (stereo not shown) [Example 236, N-[(cyclopropyl-carbamoyl)methyl]-2-[5-fluoro-6-(1-oxo-2,3-dihydro-1H-isoindol-5-yl)-1,3-benzothiazol-2-yl]-2-(propane-2-sulfonyl) acetamide] | 16 nM |
| CC(C)S(=O)(=O)C(C(=O)NCC(=O)NC1CC1)c1nc2cc(F)c(-c3ccc4cnn(C)c4c3)cc2s1 (stereo not shown) [Example 237, N-[(cyclopropyl-carbamoyl)methyl]-2-[5-fluoro-6-(1-methyl-1H-indazol-6-yl)-1,3-benzothiazol-2-yl]-2-(propane-2-sulfonyl) acetamide] | 5 nM |
| Cc1nc2cc(-c3cc4sc(C(C(=O)NCC(=O)NC5CC5)S(=O)(=O)C(C)C)nc4cc3F)ccc2s1 (stereo not shown) [Example 238, N-[(cyclopropyl-carbamoyl)methyl]-2-[5-fluoro-6-(2-methyl-1,3-benzothiazol-5-yl)-1,3-benzothiazol-2-yl]-2-(propane-2-sulfonyl)acetamide] | 5 nM |
| CC(C)S(=O)(=O)C(C(=O)NCC(=O)NC1CC1)c1nc2cc(F)c(-c3ccc4c(c3)C(=O)NC4)cc2s1 (stereo not shown) [Example 239, N-[(cyclopropyl-carbamoyl)methyl]-2-[5-fluoro-6-(3-oxo-2,3-dihydro-1H-isoindol-5-yl)-1,3-benzothiazol-2-yl]-2-(propane-2-sulfonyl)acetamide] | 16 nM |
| Cc1cc(-c2cc3sc(C(C(=O)NCC(=O)NC4CC4)S(=O)(=O)C(C)C)nc3cc2F)cnn1 (stereo not shown) [Example 240, N-[(cyclopropylcarbamoyl)methyl]-2-[5-fluoro-6-(6-methylpyridazin-4-yl)-1,3-benzothiazol-2-yl]-2-(propane-2-sulfonyl) acetamide] | 192 nM |
| CC(C)S(=O)(=O)C(C(=O)NCC(=O)NC1CC1)c1nc2cc(F)c(-c3ccc(C4CC4)nc3)cc2s1 (stereo not shown) [Example 241, N-[(cyclopropyl-carbamoyl)methyl]-2-[6-(6-cyclopropyl-pyridin-3-yl)-5-fluoro-1,3-benzothiazol-2-yl]-2-(propane-2-sulfonyl) acetamide] | 17 nM |
| CC(C)S(=O)(=O)C(C(=O)NCC(=O)NC1CC1)c1nc2cc(F)c(-c3ccc4c(=O)n(C)ccc4c3)cc2s1 (stereo not shown) [Example 242, N-[(cyclopropyl-carbamoyl)methyl]-2-[5-fluoro-6-(2-methyl-1-oxo-1,2-dihydro-isoquinolin-6-yl)-1,3-benzothiazol-2-yl]-2-(propane-2-sulfonyl) acetamide] | 4 nM |
| CC(C)S(=O)(=O)C(C(=O)NCC(=O)NC1CC1)c1nc2cc(F)c(-c3cnc(C4CC4)nc3)cc2s1 (stereo not shown) [Example 243, N-[(cyclopropyl-carbamoyl)methyl]-2-[6-(2-cyclopropyl-pyrimidin-5-yl)-5-fluoro-1,3-benzothiazol-2-yl]-2-(propane-2-sulfonyl) acetamide] | 33 nM |
| CC(C)S(=O)(=O)C(C(=O)NCC(=O)NC1CC1)c1nc2cc(F)c(-c3ccc(C(=O)N4CCC4)cc3)cc2s1 (stereo not shown) [Example 244, 2-{6-[4-(azetidine-1-carbonyl)phenyl]-5-fluoro-1,3-benzothiazol-2-yl}-N-[(cyclopropyl-carbamoyl)methyl]-2-(propane-2-sulfonyl)acetamide] | 7 nM |
| Cc1cc(-c2cc3sc(C(C(=O)NCC(=O)NC4CC4)S(=O)(=O)C(C)C)nc3cc2F)ccn1 (stereo not shown) [Example 245, N-[(cyclopropyl-carbamoyl)methyl]-2-[5-fluoro-6-(2-methylpyridin-4-yl)-1,3-benzothiazol-2-yl]-2-(propane-2-sulfonyl)acetamide] | 12 nM |
| Cc1ccc(-c2cc3sc(C(C(=O)NCC(=O)NC4CC4)S(=O)(=O)C(C)C)nc3cc2F)cn1 (stereo not shown) [Example 246, N-[(cyclopropyl-carbamoyl)methyl]-2-[5-fluoro-6-(6-methylpyridin-3-yl)-1,3-benzothiazol-2-yl]-2-(propane-2-sulfonyl)acetamide] | 12 nM |
| CC(C)S(=O)(=O)C(C(=O)NCC(=O)NC1CC1)c1nc2cc(F)c(-c3ccc(C(=O)Nc4nccs4)cc3)cc2s1 (stereo not shown) [Example 247, 4-[2-({[(cyclopropyl-carbamoyl)methyl]carbamoyl} (propane-2-sulfonyl)methyl)-5-fluoro-1,3-benzothiazol-6-yl]-N-(1,3-thiazol-2-yl) benzamide] | 11 nM |
| Cc1nc2cc(-c3cc4sc(C(C(=O)NCC(=O)NC5CC5)S(C)(=O)=O)nc4cc3F)ccc2s1 (stereo not shown) [Example 248, N-[(cyclopropyl-carbamoyl)methyl]-2-[5-fluoro-6-(2-methyl-1,3-benzothiazol-5-yl)-1,3-benzothiazol-2-yl]-2-methanesulfonyl-acetamide] | 1 nM |
| CC(C)S(=O)(=O)C(C(=O)NCC(=O)NC1CC1)c1nc2cc(F)c(-c3ccc(C#N)nc3)cc2s1 (stereo not shown) [Example 249, 2-[6-(6-cyanopyridin-3-yl)-5-fluoro-1,3-benzothiazol-2-yl]-N-[(cyclopropyl-carbamoyl)methyl]-2-(propane-2-sulfonyl)acetamide] | 29 nM |
| Cc1cc(-c2cc3sc(C(C(=O)NCC(=O)NC4CC4)S(C)(=O)=O)nc3cc2F)ccn1 (stereo not shown) [Example 250, N-[(cyclopropyl-carbamoyl)methyl]-2-[5-fluoro-6-(2-methylpyridin-4-yl)-1,3-benzothiazol-2-yl]-2-methanesulfonyl-acetamide] | 11 nM |
| CC(C)c1ccc(-c2cc3sc(C(C(=O)NCC(=O)NC4CC4)S(=O)(=O)C(C)C)nc3cc2F)cn1 (stereo not shown) [Example 251, N-[(cyclopropyl-carbamoyl)methyl]-2-{5-fluoro-6-[6-(propan-2-yl)pyridin-3-yl]-1,3-benzothiazol-2-yl}-2-(propane-2-sulfonyl) acetamide] | 8 nM |
| Cc1ccc(-c2cc3sc(C(C(=O)NCC(=O)NC4CC4)S(=O)(=O)C(C)C)nc3cc2C)cn1 (stereo not shown) [Example 252, N-[(cyclopropyl-carbamoyl)methyl]-2-[5-methyl-6-(6-methylpyridin-3-yl)-1,3-benzothiazol-2-yl]-2-(propane-2-sulfonyl)acetamide] | 15 nM |
| Cc1cc2nc(C(C(=O)NCC(=O)NC3CC3)S(=O)(=O)C(C)C)sc2cc1-c1ccc(C(C)C)nc1 (stereo not shown) [Example 253, N-[(cyclopropyl-carbamoyl)methyl]-2-{5-methyl-6-[6-(propan-2-yl)pyridin-3-yl]-1,3-benzothiazol-2-yl}-2-(propane-2-sulfonyl) acetamide] | 7 nM |
| Cc1cc2nc(C(C(=O)NCC(=O)NC3CC3)S(=O)(=O)C(C)C)sc2cc1-c1ccc(C#N)nc1 (stereo not shown) [Example 254, 2-[6-(6-cyanopyridin-3-yl)-5-methyl-1,3-benzothiazol-2-yl]-N-[(cyclopropyl-carbamoyl)methyl]-2-(propane-2-sulfonyl)acetamide] | 9 nM |
